Key:
Assay type in all cases: in vivo
[1] = tested on: cattle tick larvae (Rhipicephalus microplus), strain Parkhurst, resistant against synthetic pyrethroids; experiment: Rhipicephalus (Boophilus) microplus in-vitro contact test, larval cattle tick; settings: 5 μg/cm^2 (=500 g/ha), after 48 hours
Experimental: Rhipicephalus (Boophilus) Microplus—In-Vitro Contact Tests Larval Cattle Tick (Strain Parkhurst, Resistant Against Synthetic Pyrethroids)
(§1) 9 mg compound is solved in 1 mL acetone and diluted with acetone to the desired concentration. 250 μL of the test solution is filled in 25 mL glass test tubes and homogeneously distributed on the inner walls by rotation and tilting on a shaking device (2 h at 30 rpm). With a compound concentration of 900 ppm, an inner surface of 44.7 cm^2 and a homogeneous distribution, a dose of 5 μg/cm^2 is achieved.
After the solvent has evaporated, each test tube is filled with 20-50 cattle tick larvae (Rhipicephalus microplus), closed with a perforated lid and incubated in a horizontal position at 85% relative humidity and 27° C. in an incubator. After 48 hours efficacy is determined. The larvae are patted on the ground of the tubes and negative geotactic behavior is recorded.
An efficacy of 100% means all larvae are dead or moribund; 0% means no larvae are dead or moribund.

[2] = tested on: adult brown dog ticks (Rhipicephalus sanguineus); experiment: Rhipicephalus sanguineus in-vitro contact test, adult brown dog ticks; settings: 48 h, read-out: efficacy (ticks dead or moribund)
Experimental: Rhipicephalus sanguineus—In-Vitro Contact Tests with Adult Brown Dog Ticks
as §1
After the solvent has evaporated, each test tube is filled with 5-10 adult brown dog ticks (Rhipicephalus sanguineus), closed with a perforated lid and incubated in a lying position at room temperature and relative humidity. After 48 hours efficacy is determined. The ticks are patted on the ground of the tubes and are incubated on a heating plate at 45-50° C. for at most 5 minutes. Immotile or uncoordinated moving ticks, which are not able to escape the heat by climbing upwards, are marked as dead or moribund.
An efficacy of 100% means all ticks are dead or moribund; 0% means no ticks are dead or moribund.

[3] = tested on: fall armyworm larvae (Spodoptera frugiperda); experiment: whole plant or invertebrate; settings: 168 h
Method in brief: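 Percent kill of Spodoptera frugiperda caterpillars, read 7 days after infestation of dried, spray-treated Zea mays leaf pieces. Spray preparation: compound in acetone plus dimethylformamide, diluted with emulsifier-containing water.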

[4] = tested on: adult cat fleas (Ctenocephalides felis); experiment: Ctenocephalides felis in-vitro contact test, adult cat flea; settings: 5 μg/cm^2 (=500 g/ha), after 48 hours
Experimental: Ctenocephalides felis—In-Vitro Contact Tests Adult Cat Flea
as §1
After the solvent has evaporated, each test tube is filled with 5-10 adult cat fleas (Ctenocephalides felis), closed with a perforated lid and incubated in a lying position at room temperature and relative humidity. After 48 hours efficacy is determined. The fleas are patted on the ground of the tubes and are incubated on a heating plate at 45-50° C. for at most 5 minutes. Immotile or uncoordinated moving fleas, which are not able to escape the heat by climbing upwards, are marked as dead or moribund.
An efficacy of 100% means all fleas are dead or moribund; 0% means no fleas are dead or moribund.

[5] = tested on: larvae of the southern green stink bug (Nezara viridula); experiment: whole plant or invertebrate; settings: 96 h
Method in brief: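 Percent mortality of southern green stink bug larvae was recorded at day 4, with 100% meaning all dead. The larvae were placed on barley sprayed with the test solution. That solution was prepared from acetone/dimethylformamide concentrate diluted in emulsifier-containing water (1000 ppm).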

[6] = tested on: larvae of the banded cucumber beetle (Diabrotica balteata); experiment: Diabrotica balteata spray test; settings: 168 h, 100 g/ha (=32 μg/well), after 7 days, read-out: efficacy (seedling growth)
Method in brief: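 Efficacy is seedling survival after 7 days, where 0% means no seedlings grew and 100% means growth equal to untreated, uninfested controls. Wheat seedlings, germinated on agar for 1 day, were sprayed with the aqueous emulsifier dilution (acetone/DMF solvent) and then exposed to 10–20 banded cucumber beetle larvae.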

[7] = tested on: green peach aphid (Myzus persicae); experiment: Myzus persicae spray test (MYZUPE); settings: 120 h, 100 g/ha, after 5 days
Method in brief: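 Percent aphid kill, with 0% meaning none killed, was read 5 days after spraying. The preparation (acetone–DMF solvent, water with 1000 ppm emulsifier) was applied to Brassica pekinensis leaf disks carrying mixed-instar green peach aphids.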

[8] = tested on: brown planthopper (Nilaparvata lugens); experiment: Nilaparvata lugens spray test; settings: 96 h
Method in brief: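 Rice plants (Oryza sativa) sprayed with compound formulated in acetone/DMF with alkylarylpolyglycol ether emulsifier (1000 ppm in diluting water), then infested with planthoppers. Mortality (%) scored after 4 days; 100% = all insects killed, 0% = none killed.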

Row | Structure (SMILES) | efficacy (larvae dead or moribund) [1] | pest or weed control at 5 µg/cm2, 500 g/ha [2] | mortality at 100 g/ha [3] | efficacy (fleas dead or moribund) [4] | mortality at 500 g/ha [5] | pest or weed control at 32 µg/disc, 100 g/ha [6] | mortality at 100 g/ha [7] | mortality at 500 g/ha [8]
1 | C[C@H](NC(=O)c1cc(Cl)cc(OC(F)(F)F)c1)c1ncnn1-c1cc(C#N)ncn1 [I-18] | 100% | 100% | 100% | 90% | 100% | 100% | 90% | –
2 | C[C@H](NC(=O)c1cc(C#N)cc(OC(F)(F)F)c1)c1ncnn1-c1cc(C#N)ncn1 [I-38] | 100% | – | 100% | 90% | 100% | 100% | – | 100%
3 | CNC(=O)c1cc(-n2ncnc2[C@H](C)NC(=O)c2cc(Br)cc(Br)c2)ncn1 [I-46] | 100% | – | 100% | 100% | 100% | 100% | 90% | –
4 | CNC(=O)c1cc(-n2nc(C)nc2[C@H](C)NC(=O)c2cc(Br)cc(Br)c2)ncn1 [I-52] | 100% | 100% | 100% | 100% | – | 100% | – | –
5 | CC(C)N(C)C(=O)c1cc(-n2ncnc2[C@H](C)NC(=O)c2cc(Br)cc(OC(F)(F)F)c2)ncn1 [I-55] | 100% | 100% | 100% | 100% | – | 100% | 100% | –
6 | CC(C)N(C)C(=O)c1cc(-n2ncnc2[C@H](C)NC(=O)c2cc(Cl)cc(OC(F)(F)F)c2)ncn1 [I-56] | 100% | 100% | 100% | 100% | – | 100% | 90% | –
7 | CC(C)N(C)C(=O)c1cc(-n2ncnc2[C@H](C)NC(=O)c2cc(OC(F)(F)F)cc(C3CC3)c2)ncn1 [I-57] | 100% | 100% | 100% | 100% | – | – | – | 100%
8 | CCN(C)C(=O)c1cc(-n2nc(C)nc2[C@H](C)NC(=O)c2cc(C(F)(F)F)cc(C(F)(F)F)c2)ncn1 [I-63] | 100% | 100% | 100% | 100% | – | 100% | – | 100%
9 | CNC(=O)c1cc(-n2nc(C)nc2[C@H](C)NC(=O)c2cc(Br)cc(OC(F)(F)F)c2)ncn1 [I-65] | 100% | 100% | 100% | 100% | 100% | 100% | 90% | –
10 | C[C@H](NC(=O)c1cc(OC(F)F)cc(C2CC2)c1)c1ncnn1-c1cc(C(N)=O)ncn1 [I-66] | 100% | – | 100% | 90% | 100% | 100% | 90% | –
11 | CC(C)N(C)C(=O)c1cc(-n2ncnc2[C@H](C)NC(=O)c2cc(OC(F)F)cc(C3CC3)c2)ncn1 [I-68] | 100% | 100% | 100% | 100% | – | – | – | –
12 | C[C@H](NC(=O)c1cc(Cl)cc(Cl)c1)c1ncnn1-c1cc(C(N)=O)ncn1 [I-69] | 100% | 100% | 100% | 100% | 100% | 100% | 70% | –
13 | Cc1nc([C@H](C)NC(=O)c2cc(C(F)(F)F)cc(C(F)(F)F)c2)n(-c2cc(C(=O)N(C)CC3CC3)ncn2)n1 [I-75] | 100% | 100% | 100% | 100% | 100% | 100% | – | 100%
14 | CNC(=O)c1cc(-n2nc(C)nc2[C@H](C)NC(=O)c2cc(Cl)cc(OC(F)(F)F)c2)ncn1 [I-87] | 100% | 100% | 100% | 100% | 100% | 100% | 100% | –
15 | Cc1nc([C@H](C)NC(=O)c2cc(Br)cc(OC(F)F)c2)n(-c2cc(C(N)=O)ncn2)n1 [I-89] | 100% | 100% | 100% | 100% | 100% | 100% | 100% | –
16 | Cc1nc([C@H](C)NC(=O)c2cc(Cl)cc(Cl)c2)n(-c2cc(C(N)=O)ncn2)n1 [I-95] | 100% | 100% | 100% | 100% | 100% | 100% | 90% | –
17 | Cc1nc([C@H](C)NC(=O)c2cc(OC(F)F)cc(OC(F)F)c2)n(-c2cc(C(N)=O)ncn2)n1 [I-98] | 100% | 100% | 100% | 100% | 100% | 100% | 100% | –
